Laboratory results reported in patent US10004701B2, “Methods and compositions for treating infection” (UNIVERSITY OF ROCHESTER, priority 2012, dated 2018).
Counter-ions that a name gives are not always drawn. Like-named read-outs stand apart in the source and are kept apart here.

Columns and labels:
Test in all cases: AK assay 384-well format, Prestwick library screening
[1] = tested on: S. aureus strain USA300-0114; type: cell-based, Staphylococcus aureus; details: Staphylococcus aureus, USA300, 3 h, 50 μM final drug concentration
E. coli = type: cell-based, Escherichia coli; details: Escherichia coli, 3 h, 50 μM final drug concentration
[2] = tested on: A. baumannii strain 98-37-09; type: cell-based, Acinetobacter baumannii; details: Acinetobacter baumannii, 983709, 3 h, 50 μM final drug concentration
P. aeruginosa = type: cell-based, Pseudomonas aeruginosa; details: Pseudomonas aeruginosa, 3 h, 50 μM final drug concentration
K. pneumoniae = type: cell-based, Klebsiella pneumoniae; details: Klebsiella pneumoniae, 3 h, 50 μM final drug concentration
E. faecium = type: cell-based, Enterococcus faecium; details: Enterococcus faecium, 3 h, 50 μM final drug concentration
E. cloacae = type: cell-based, Enterobacter cloacae; details: Enterobacter cloacae, 3 h, 50 μM final drug concentration
[3] = planktonic, […], read-out: AK-based Prestwick Library Screening Results, S. aureus (fold increase in extracellular AK activity)
[4] = planktonic, […], read-out: AK-based Prestwick Library Screening Results, E. coli (fold increase in extracellular AK activity)
[5] = planktonic, […], read-out: AK-based Prestwick Library Screening Results, A. baumannii (fold increase in extracellular AK activity)
[6] = planktonic, […], read-out: AK-based Prestwick Library Screening Results, P. aeruginosa (fold increase in extracellular AK activity)
[7] = planktonic, […], read-out: AK-based Prestwick Library Screening Results, K. pneumoniae (fold increase in extracellular AK activity)
[8] = planktonic, […], read-out: AK-based Prestwick Library Screening Results, E. faecium (fold increase in extracellular AK activity)
[9] = planktonic, […], read-out: AK-based Prestwick Library Screening Results, E. cloacae (fold increase in extracellular AK activity)

N=C(N)NCCN1CCCCCCC1 [Guanethidine sulfate] gave a fold induction at 50 µM ([1]; planktonic S. aureus, 384-well, […], read-out: AK-based Prestwick Library Screening Results: S. aureus (increase in extracellular AK activity)) of 1.1, a fold induction at 50 µM (E. coli; planktonic E. coli, 384-well, […], read-out: AK-based Prestwick Library Screening Results: E. coli (increase in extracellular AK activity)) of 1.4 and a fold induction at 50 µM ([2]; planktonic A. baumannii, 384-well, […], read-out: AK-based Prestwick Library Screening Results: A. baumannii (increase in extracellular AK activity)) of 1.3. For the same compound, the fold induction at 50 µM (P. aeruginosa; planktonic P. aeruginosa, 384-well, […], read-out: AK-based Prestwick Library Screening Results: P. aeruginosa (increase in extracellular AK activity)) was 1.4, the fold induction at 50 µM (K. pneumoniae; planktonic K. pneumoniae, 384-well, […], read-out: AK-based Prestwick Library Screening Results: K. pneumoniae (increase in extracellular AK activity)) was 1.1 and the fold induction at 50 µM (E. faecium; planktonic E. faecium, 384-well, […], read-out: AK-based Prestwick Library Screening Results: E. faecium (increase in extracellular AK activity)) was 1.1. It also gave a fold induction at 50 µM (E. cloacae; planktonic E. cloacae, 384-well, […], read-out: AK-based Prestwick Library Screening Results: E. cloacae (increase in extracellular AK activity)) of 1.4.
N=C(N)NC(=O)Cc1c(Cl)cccc1Cl [Guanfacine hydrochloride] was tested, and the fold induction at 50 µM ([1]; planktonic S. aureus, cutoff for positive-scoring molecules 3-fold increase, read-out: AK-based Prestwick Library Screening Results, S. aureus (increase in extracellular AK activity)) was 0.6, the fold induction at 50 µM (E. coli; planktonic E. coli, cutoff for positive-scoring molecules 3-fold increase, read-out: AK-based Prestwick Library Screening Results, E. coli (increase in extracellular AK activity)) was 0.8 and the fold induction at 50 µM ([2]; planktonic A. baumannii, cutoff for positive-scoring molecules 3-fold increase, read-out: AK-based Prestwick Library Screening Results, A. baumannii (increase in extracellular AK activity)) was 0.7. It also gave a fold induction at 50 µM (P. aeruginosa; planktonic P. aeruginosa, cutoff for positive-scoring molecules 3-fold increase, read-out: AK-based Prestwick Library Screening Results, P. aeruginosa (increase in extracellular AK activity)) of 0.7, a fold induction at 50 µM (K. pneumoniae; planktonic K. pneumoniae, cutoff for positive-scoring molecules 3-fold increase, read-out: AK-based Prestwick Library Screening Results, K. pneumoniae (increase in extracellular AK activity)) of 0.5 and a fold induction at 50 µM (E. faecium; planktonic E. faecium, cutoff for positive-scoring molecules 3-fold increase, read-out: AK-based Prestwick Library Screening Results, E. faecium (increase in extracellular AK activity)) of 1.1. The fold induction at 50 µM (E. cloacae; planktonic E. cloacae, cutoff for positive-scoring molecules 3-fold increase, read-out: AK-based Prestwick Library Screening Results, E. cloacae (increase in extracellular AK activity)) was 0.9.
CC1(C)O[C@@H]2C[C@H]3[C@@H]4CCC5=CC(=O)CC[C@]5(C)[C@@]4(F)[C@@H](O)C[C@]3(C)[C@]2(C(=O)CCl)O1 [Halcinonide] showed a fold induction at 50 µM ([1]; planktonic, cutoff for positive-scoring molecules 3-fold increase, read-out: AK-based Prestwick Library Screening Results, S. aureus (fold increase in extracellular AK activity)) of 0.6, a fold induction at 50 µM (E. coli; planktonic, cutoff for positive-scoring molecules 3-fold increase, read-out: AK-based Prestwick Library Screening Results, E. coli (fold increase in extracellular AK activity)) of 0.6 and a fold induction at 50 µM ([2]; planktonic, cutoff for positive-scoring molecules 3-fold increase, read-out: AK-based Prestwick Library Screening Results, A. baumannii (fold increase in extracellular AK activity)) of 0.7. The fold induction at 50 µM (P. aeruginosa; planktonic, cutoff for positive-scoring molecules 3-fold increase, read-out: AK-based Prestwick Library Screening Results, P. aeruginosa (fold increase in extracellular AK activity)) was 0.7, the fold induction at 50 µM (K. pneumoniae; planktonic, cutoff for positive-scoring molecules 3-fold increase, read-out: AK-based Prestwick Library Screening Results, K. pneumoniae (fold increase in extracellular AK activity)) was 0.5 and the fold induction at 50 µM (E. faecium; planktonic, cutoff for positive-scoring molecules 3-fold increase, read-out: AK-based Prestwick Library Screening Results, E. faecium (fold increase in extracellular AK activity)) was 0.9. It also gave a fold induction at 50 µM (E. cloacae; planktonic, cutoff for positive-scoring molecules 3-fold increase, read-out: AK-based Prestwick Library Screening Results, E. cloacae (fold increase in extracellular AK activity)) of 0.8.
CCCCN(CCCC)CCC(O)c1cc2c(Cl)cc(Cl)cc2c2cc(C(F)(F)F)ccc12 (stereo not drawn) [Halofantrine hydrochloride] was tested, and the fold induction at 50 µM ([1]; planktonic S. aureus, positive cutoff 3-fold increase, read-out: AK-based Prestwick library screening result, S. aureus (fold increase in extracellular AK activity)) was 1.2, the fold induction at 50 µM (E. coli; planktonic E. coli, positive cutoff 3-fold increase, read-out: AK-based Prestwick library screening result, E. coli (fold increase in extracellular AK activity)) was 1 and the fold induction at 50 µM ([2]; planktonic A. baumannii, positive cutoff 3-fold increase, read-out: AK-based Prestwick library screening result, A. baumannii (fold increase in extracellular AK activity)) was 1.3. For the same compound, the fold induction at 50 µM (P. aeruginosa; planktonic P. aeruginosa, positive cutoff 3-fold increase, read-out: AK-based Prestwick library screening result, P. aeruginosa (fold increase in extracellular AK activity)) was 1.1, the fold induction at 50 µM (K. pneumoniae; planktonic K. pneumoniae, positive cutoff 3-fold increase, read-out: AK-based Prestwick library screening result, K. pneumoniae (fold increase in extracellular AK activity)) was 1.1 and the fold induction at 50 µM (E. faecium; planktonic E. faecium, positive cutoff 3-fold increase, read-out: AK-based Prestwick library screening result, E. faecium (fold increase in extracellular AK activity)) was 1. It also gave a fold induction at 50 µM (E. cloacae; planktonic E. cloacae, positive cutoff 3-fold increase, read-out: AK-based Prestwick library screening result, E. cloacae (fold increase in extracellular AK activity)) of 1.3.
O=C(CCCN1CCC(O)(c2ccc(Cl)cc2)CC1)c1ccc(F)cc1 [Haloperidol] gave a fold induction at 50 µM ([1]; 384-well format, cutoff for positive-scoring molecules 3-fold increase, read-out: AK-based Prestwick Library Screening Results, S. aureus (increase in extracellular AK activity)) of 0.8, a fold induction at 50 µM (E. coli; 384-well format, cutoff for positive-scoring molecules 3-fold increase, read-out: AK-based Prestwick Library Screening Results, E. coli (increase in extracellular AK activity)) of 0.9 and a fold induction at 50 µM ([2]; 384-well format, cutoff for positive-scoring molecules 3-fold increase, read-out: AK-based Prestwick Library Screening Results, A. baumannii (increase in extracellular AK activity)) of 1. It also gave a fold induction at 50 µM (P. aeruginosa; 384-well format, cutoff for positive-scoring molecules 3-fold increase, read-out: AK-based Prestwick Library Screening Results, P. aeruginosa (increase in extracellular AK activity)) of 0.9, a fold induction at 50 µM (K. pneumoniae; 384-well format, cutoff for positive-scoring molecules 3-fold increase, read-out: AK-based Prestwick Library Screening Results, K. pneumoniae (increase in extracellular AK activity)) of 0.6 and a fold induction at 50 µM (E. faecium; 384-well format, cutoff for positive-scoring molecules 3-fold increase, read-out: AK-based Prestwick Library Screening Results, E. faecium (increase in extracellular AK activity)) of 0.9. The fold induction at 50 µM (E. cloacae; 384-well format, cutoff for positive-scoring molecules 3-fold increase, read-out: AK-based Prestwick Library Screening Results, E. cloacae (increase in extracellular AK activity)) was 1.1.
For COc1ccc2c3c([nH]c2c1)C(C)=NCC3 [Harmaline hydrochloride dihydrate], the fold induction at 50 µM [1, 3] was 1.4, the fold induction at 50 µM (E. coli; [4]) was 1.1 and the fold induction at 50 µM [2, 5] was 1. It also gave a fold induction at 50 µM (P. aeruginosa; [6]) of 1, a fold induction at 50 µM (K. pneumoniae; [7]) of 0.9 and a fold induction at 50 µM (E. faecium; [8]) of 1. It also gave a fold induction at 50 µM (E. cloacae; [9]) of 1.3.
CC1=NCCc2c1[nH]c1cc(O)ccc21 [Harmalol hydrochloride dihydrate] was tested, and the fold induction at 50 µM ([1]; planktonic, cutoff for positive 3-fold increase, read-out: AK-based Prestwick Library Screening Results, S. aureus (fold increase in extracellular AK activity)) was 0.8, the fold induction at 50 µM (E. coli; planktonic, cutoff for positive 3-fold increase, read-out: AK-based Prestwick Library Screening Results, E. coli (fold increase in extracellular AK activity)) was 1.2 and the fold induction at 50 µM ([2]; planktonic, cutoff for positive 3-fold increase, read-out: AK-based Prestwick Library Screening Results, A. baumannii (fold increase in extracellular AK activity)) was 1.1. It also gave a fold induction at 50 µM (P. aeruginosa; planktonic, cutoff for positive 3-fold increase, read-out: AK-based Prestwick Library Screening Results, P. aeruginosa (fold increase in extracellular AK activity)) of 1.2, a fold induction at 50 µM (K. pneumoniae; planktonic, cutoff for positive 3-fold increase, read-out: AK-based Prestwick Library Screening Results, K. pneumoniae (fold increase in extracellular AK activity)) of 0.8 and a fold induction at 50 µM (E. faecium; planktonic, cutoff for positive 3-fold increase, read-out: AK-based Prestwick Library Screening Results, E. faecium (fold increase in extracellular AK activity)) of 1. It also gave a fold induction at 50 µM (E. cloacae; planktonic, cutoff for positive 3-fold increase, read-out: AK-based Prestwick Library Screening Results, E. cloacae (fold increase in extracellular AK activity)) of 1.6.
Compound COc1ccc2c(c1)[nH]c1c(C)nccc12 [Harmine hydrochloride] has a fold induction at 50 µM [1, 3] of 0.9, a fold induction at 50 µM (E. coli; [4]) of 1.1 and a fold induction at 50 µM [2, 5] of 1. The fold induction at 50 µM (P. aeruginosa; [6]) was 1.2, the fold induction at 50 µM (K. pneumoniae; [7]) was 0.7 and the fold induction at 50 µM (E. faecium; [8]) was 1.1. It also gave a fold induction at 50 µM (E. cloacae; [9]) of 1.5.
In the case of Cc1[nH]ccc2c1[nH]c1cc(=O)ccc12 [Harmol hydrochloride monohydrate], the fold induction at 50 µM [1, 3] is reported as 0.9, the fold induction at 50 µM (E. coli; [4]) is reported as 1.4 and the fold induction at 50 µM [2, 5] is reported as 1.1. It also gave a fold induction at 50 µM (P. aeruginosa; [6]) of 1.1, a fold induction at 50 µM (K. pneumoniae; [7]) of 0.9 and a fold induction at 50 µM (E. faecium; [8]) of 1. The fold induction at 50 µM (E. cloacae; [9]) was 1.6.
